How the values were obtained:
GLUT1 = target: T1, GLUT1 (Homo sapiens, UniProt P11166); test: cis-inhibition assay of [14C]-D-glucose uptake (GLUT1 affinity) in CAL 27 cells; type: cell-based; details: incubation time 5 min
T1 construct: host or cells: CAL 27
T1 sequence (P11166 1-492): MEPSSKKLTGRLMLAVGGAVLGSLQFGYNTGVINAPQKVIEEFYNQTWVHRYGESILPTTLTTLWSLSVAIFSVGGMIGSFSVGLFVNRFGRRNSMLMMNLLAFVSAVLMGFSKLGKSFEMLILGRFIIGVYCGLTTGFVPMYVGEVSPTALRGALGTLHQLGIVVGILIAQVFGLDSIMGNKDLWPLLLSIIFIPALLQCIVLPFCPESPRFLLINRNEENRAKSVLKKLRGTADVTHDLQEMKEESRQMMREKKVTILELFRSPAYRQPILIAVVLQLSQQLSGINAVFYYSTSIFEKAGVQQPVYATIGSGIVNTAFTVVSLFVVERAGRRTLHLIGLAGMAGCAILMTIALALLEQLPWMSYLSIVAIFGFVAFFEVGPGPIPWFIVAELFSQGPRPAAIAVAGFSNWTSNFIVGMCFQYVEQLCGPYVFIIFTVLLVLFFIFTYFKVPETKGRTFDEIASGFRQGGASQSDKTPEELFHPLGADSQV
From the text: GLUT affinity: In a strategy targeting the GLUTs, it is important to study whether the monosaccharide delivery agents will be able to compete for the transporters with the high D-glucose levels found in blood. For these purposes, we utilized our previously developed cis-inhibition assay in the CAL 27 cell line. In addition to having accurate protocols for assessment of GLUT-affinity, we have previously studied the GLUT1 expression and verified its function in the CAL 27 cell line. Thus, a strong foundation was available for the current study and we employed an identical protocol herein in the assessment of GLUT affinity, i.e., in assessing to which extent the delivery agents will be able to compete for the GLUTs against the natural substrate D-glucose.
(§1) The CAL 27 (ATCC CRL-2095) cells used in all assays were acquired from ATCC (Manassas, VA, USA) and cultured in Dulbecco’s Modified Eagle Medium (DMEM) supplemented with L-glutamine (2.0 mM), heat-inactivated fetal bovine serum (10%), and penicillin (50 U/mL)-streptomycin (50 μg/mL) at 37 °C with 5% CO2 and 95% relative humidity.
The GLUT1 affinity assay was conducted following our previously established protocol. Stock solutions of the glycoconjugates were prepared in DMSO. From the stock solutions, the samples employed in the study were prepared by diluting the stock solutions in glucose-free HBSS-buffer to reach concentrations of 0.1–1800 μM. The cells were incubated at RT for 5 min with glycoconjugates 1–4, BSH or BPA over the concentration range given above. The glucose-free HBSS buffer as such was used as a blank control. In more detail, the solutions included 1.8 μM ([…]) of [^14C]-D-glucose in 250 μL of glucose-free HBSS (Hanks’ balanced salt solution). Ice-cold buffer was used for quenching. Cell lysis was performed using 0.1 M NaOH (250 μL) and then mixed with an emulsifier safe cocktail (1.0 mL) (PerkinElmer, Waltham, MA, USA). The radioactivity was measured with a liquid scintillation counter (MicroBeta2 counter, PerkinElmer, Waltham, MA, USA), and the IC50 values were calculated through nonlinear regression analysis.

[1] = Plasma protein binding, equilibrium dialysis, mouse plasma; type: in vitro ADME; details: 1 μM, results similar in human and mouse
Protocol: (§2) Through the plasma protein binding assay, we sought to provide a baseline for future assessment of the ADME-properties of FDM derivative 4. In more detail, this assay would let us evaluate to which extent the FDM derivative 4 would remain in an unbound state in the presence of plasma proteins. These studies were performed through the standard equilibrium dialysis protocol at the time points of 0 and 6 h employing a concentration of 1 μM. While the studies were performed in both human and mouse plasma, the results were similar in both cases. Being a relatively lipophilic species, it was unsurprising that the FDM derivative 4 bound in significant amounts to the plasma proteins (~97% bound vs. 3% unbound).
The working solutions of test compounds were prepared in DMSO at the concentrations of 10 mM and the working solution of control compound ketoconazole was prepared in DMSO at the concentration of 200 μM. 3 μL of the working solutions were removed to mix with 597 μL of plasma to achieve a final concentration of 1 μM or 50 μM (0.5% DMSO). The plasma samples were vortexed thoroughly. A total of 50 µL of the spiked plasma sample was transferred to 50 μL of blank buffer, and then either incubated for 6 h (37 °C with 5% CO2) or immediately quenched by the addition of 300 μL of RT quench solution (acetonitrile containing internal standards (IS, 200 nM labetalol, 100 nM tolbutamide and 100 nM ketoprofen) to precipitate protein and the mixture was vortex for 5 min.
The dialysis membranes were soaked in ultrapure water for 60 min to separate strips, then in 20% ethanol for 20 min, and finally in dialysis buffer for 20 min. The dialysis apparatus was assembled according to the manufacturer’s instructions. Each cell was filled with 120 μL of spiked plasma sample and dialyzed against equal volume of dialysis buffer (PBS). The assay was performed in duplicate. The dialysis plate was sealed and incubated in an incubator at 37 °C with 5% CO2 at 100 rpm for 6 h. […]

[2] = Plasma stability, mouse plasma; type: in vitro ADME; details: 50 μM
Protocol: These studies provide important insights into the stability and behavior of the delivery agent in a biological setting, which is a key factor at later stages of the development pipeline. The serum stability studies were performed in both human and mouse plasma at a set concentration of 50 μM over a time period of 24 h. Propantheline (5 μM) was utilized as a control substrate for validating the assay. […] In human plasma, the stability profile was distinct. […] While the boron delivery agent 4 does decompose in human plasma over time, the rate at which this occurs is acceptable when taking into account that the recommended guidelines for FDG imaging, thus tumor delivery, is between 55–75 min post administration. […]
10 mM working solutions of the test compound was prepared in DMSO and a 1 mM working solution of the control compound propantheline was prepared in acetonitrile. […] Peak area ratios were determined from extracted ion chromatograms. Percent compounds remaining at each time point were calculated by the following equation:Remaining Percentage t h (%) = Peak Area Ratio t h/Peak Area Ratio 0 h × 100 where Peak Area Ratio t h is the peak area ratio of control and test compound at t h; Peak Area Ratio 0 h is the peak area ratio of control and test compound at zero time point.

[3] = Plasma stability, human plasma; type: in vitro ADME; details: 50 μM
Protocol: These studies provide important insights into the stability and behavior of the delivery agent in a biological setting, which is a key factor at later stages of the development pipeline. The serum stability studies were performed in both human and mouse plasma at a set concentration of 50 μM over a time period of 24 h. Propantheline (5 μM) was utilized as a control substrate for validating the assay. […] In human plasma, the stability profile was distinct. […] While the boron delivery agent 4 does decompose in human plasma over time, the rate at which this occurs is acceptable when taking into account that the recommended guidelines for FDG imaging, thus tumor delivery, is between 55–75 min post administration. Nevertheless, the ortho-carboranylmethyl-substituent is likely to affect the pharmacokinetic properties of the delivery agents and thus comprehensive biodistribution studies will be needed in the future to assess these factors in more detail.
10 mM working solutions of the test compound was prepared in DMSO and a 1 mM working solution of the control compound propantheline was prepared in acetonitrile. 4 µL of working solutions was spiked to 796 µL of pre-incubated plasma to reach a final concentration of 50 µM or 5 µM. The final concentration of solvent was 0.5%. 50 µL aliquots of the spiked plasma were added into new tubes for 1, 4, 8 and 24 h and incubated at 37 °C water bath with shaking at 60 rpm. The assay was performed in duplicate. The reaction was stopped by adding 300 µL of RT quench solution (acetonitrile containing internal standards (IS, 100 nM Alprazolam, 500 nM Labetalol, and 2 µM Ketoprofen)) to the spiked plasma samples at the appointed time points. […] Peak area ratios were determined from extracted ion chromatograms. Percent compounds remaining at each time point were calculated by the following equation:Remaining Percentage t h (%) = Peak Area Ratio t h/Peak Area Ratio 0 h × 100 where Peak Area Ratio t h is the peak area ratio of control and test compound at t h; Peak Area Ratio 0 h is the peak area ratio of control and test compound at zero time point.

CAL 27 cells = test: Boron delivery capacity (boron uptake) by ICP-MS; type: cell-based, human; details: 10–400 μM, 5 min and 120 min, compared with BPA and BSH and within the series
Protocol: Boron delivery capacity: A central property of boron delivery agents is their boron delivery capacity. […] Herein, we studied the boron delivery capacity at two time points (5 min, and 120 min) over the concentration range of 10–400 μM (see summary in Figure 4). Our previously employed protocol was utilized in order to be able to compare the results to those obtained earlier. In short, after quenching of the incubation, washing, lysis, and digestion with nitric acid, the boron content could be determined by ICP-MS.
as §1
The boron uptake studies were performed according to our earlier reported protocol. The samples used in the boron uptake studies were prepared as described above for the affinity studies. The cells were preincubated. Glycoconjugates 1–4 at various concentrations (10–400 μM in 250 μL of HBSS) were added, and incubation continued for […] 120 min at RT. […] Milli-Q water (USF Elga Purelab Ultra, Veolia Water Technologies, High Wycombe, UK) was added to bring the sample volume to 10 mL, and the boron content was measured in triplicates using ICP-MS. […]

[4] = Plasma protein binding, equilibrium dialysis, human plasma; type: in vitro ADME; details: 1 μM, results similar in human and mouse
Protocol: as §2
The working solutions of test compounds were prepared in DMSO at the concentrations of 10 mM and the working solution of control compound ketoconazole was prepared in DMSO at the concentration of 200 μM. 3 μL of the working solutions were removed to mix with 597 μL of plasma to achieve a final concentration of 1 μM or 50 μM (0.5% DMSO). The plasma samples were vortexed thoroughly. […]

Compound “2-deoxy-2-fluoro-4-O-carboranylmethyl-D-glucopyranose [Compound 2]” has an IC50 (GLUT1) of 57.5 µM.

In the case of “2-deoxy-2-fluoro-4-O-carboranylmethyl-D-mannopyranose [Compound 4]”, the “remained in the bound state” value ([1]; 6 h mark) is reported as 80–87%, the “bound to plasma proteins” value ([1]; equilibrium dialysis) is reported as ~ 97% and the unbound ([1]; equilibrium dialysis) is reported as 3%. The conjugate remaining intact ([2]; 1 h) was 84.7%, the conjugate remaining intact ([2]; 24 h) was 60% and the “stability in human plasma” value ([3]; 1 h) was “remained stable”. The remained intact ([3]; 4 h) was 86.7%, the remained intact ([3]; 24 h) was 39.5% and the boron delivery capacity (CAL 27 cells) was “best delivery agent out of the series synthesized”. The IC50 (GLUT1) was 59.5 µM, the “bound to plasma proteins” value [4] was ~ 97% and the unbound [4] was 3%.

“2-deoxy-2-fluoro-6-O-carboranylmethyl-D-glucopyranose [Compound 1]” showed an IC50 (GLUT1) of 78.3 µM.

With “2-deoxy-2-fluoro-6-O-carboranylmethyl-D-mannopyranose [Compound 3]” the IC50 (GLUT1) was 62.6 µM.

`OC[C@H]1OC(O)[C@H](O)[C@@H](O)[C@@H]1O` (stereo partly shown) [D -Glc, reference compound] showed an IC50 (GLUT1) greater than 1000 µM.

Source: PMC11397260, “Towards New Delivery Agents for Boron Neutron Capture Therapy: Synthesis and In Vitro Evaluation of a Set of Fluorinated Carbohydrate Derivatives” (Molecules, 2024)
